Results as given in ChEMBL document CHEMBL1201862, “PubChem BioAssay data set” (2004).
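Method: 48-hour compound exposure of cells in 96-well plates, five concentrations, linear interpolation of endpoints. Abbreviation: GI50, concentration required for 50% inhibition of growth.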 Calls of active or inactive are those of the source. Rule as the data show it: active = GI50 up to about 1.1 µM and inactive = higher.

Columns and labels:
Experiment in all cases: DTP human tumour cell line panel, 48 h
786-0 = tested on: 786-0
A498 = tested on: A498
A549 = tested on: A549
ACHN = tested on: ACHN
BT-549 = tested on: BT-549
CAKI-1 = tested on: CAKI-1
CCRF-CEM = tested on: CCRF-CEM
COLO 205 = tested on: COLO 205
DU-145 = tested on: DU-145
EKVX = tested on: EKVX
HCC 2998 = tested on: HCC 2998
HCT-116 = tested on: HCT-116
HCT-15 = tested on: HCT-15
HL-60 = tested on: HL-60
HOP-62 = tested on: HOP-62
HOP-92 = tested on: HOP-92
HT-29 = tested on: HT-29
Hs-578T = tested on: Hs-578T
IGROV-1 = tested on: IGROV-1
K562 = tested on: K562
KM12 = tested on: KM12
LOX IMVI = tested on: LOX IMVI
M14 = tested on: M14
MCF7 = tested on: MCF7
MDA-MB-231 = tested on: MDA-MB-231
MDA-MB-435 = tested on: MDA-MB-435
MOLT-4 = tested on: MOLT-4
Malme-3M = tested on: Malme-3M
NCI-H226 = tested on: NCI-H226
NCI-H23 = tested on: NCI-H23
NCI-H460 = tested on: NCI-H460
NCI-H522 = tested on: NCI-H522
NCI/ADR-RES = tested on: NCI/ADR-RES
OVCAR-3 = tested on: OVCAR-3
OVCAR-4 = tested on: OVCAR-4
OVCAR-5 = tested on: OVCAR-5
OVCAR-8 = tested on: OVCAR-8
PC-3 = tested on: PC-3
RPMI-8226 = tested on: RPMI-8226
RXF 393 = tested on: RXF 393
SF-268 = tested on: SF-268
SF-295 = tested on: SF-295
SF-539 = tested on: SF-539
SK-MEL-28 = tested on: SK-MEL-28
SK-MEL-2 = tested on: SK-MEL-2
SK-MEL-5 = tested on: SK-MEL-5
SK-OV-3 = tested on: SK-OV-3
SN12C = tested on: SN12C
SNB-19 = tested on: SNB-19
SNB-75 = tested on: SNB-75
SR = tested on: SR
SW-620 = tested on: SW-620
T47D = tested on: T47D
TK-10 = tested on: TK-10
U-251 = tested on: U-251
UACC-257 = tested on: UACC-257
UACC-62 = tested on: UACC-62
UO-31 = tested on: UO-31

C[S+](C)CC(=O)c1ccc2c(c1)Sc1ccccc1O2
GI50 (786-0): 2.72 µM (inactive)
GI50 (A498): 8.41 µM (inactive)
GI50 (A549): 5.68 µM (inactive)
GI50 (ACHN): 5.78 µM (inactive)
GI50 (BT-549): 2.18 µM (inactive)
GI50 (CAKI-1): 4.39 µM (inactive)
GI50 (CCRF-CEM): 5.27 µM (inactive)
GI50 (COLO 205): 1.02 µM (active)
GI50 (DU-145): 4.1 µM (inactive)
GI50 (EKVX): 3.44 µM (inactive)
GI50 (HCC 2998): 2.64 µM (inactive)
GI50 (HCT-116): 1.32 µM (inactive)
GI50 (HCT-15): 2.47 µM
GI50 (HL-60): 1.61 µM (inactive)
GI50 (HOP-62): 13.2 µM (inactive)
GI50 (HOP-92): 3.74 µM (inactive)
GI50 (HT-29): 1.17 µM (inactive)
GI50 (Hs-578T): 3.45 µM (inactive)
GI50 (IGROV-1): 2.75 µM (inactive)
GI50 (K562): 3.21 µM (inactive)
GI50 (KM12): 0.955 µM (active)
GI50 (LOX IMVI): 3.18 µM (inactive)
GI50 (M14): 0.755 µM (active)
GI50 (MCF7): 1.7 µM (inactive)
GI50 (MDA-MB-231): 7.06 µM (inactive)
GI50 (MDA-MB-435): 0.923 µM (active)
GI50 (MOLT-4): 3.29 µM (inactive)
GI50 (Malme-3M): 3.45 µM (inactive)
GI50 (NCI-H226): 5.16 µM (inactive)
GI50 (NCI-H23): 3.49 µM (inactive)
GI50 (NCI-H460): 5.3 µM (inactive)
GI50 (NCI-H522): 1.09 µM (active)
GI50 (NCI/ADR-RES): 6.55 µM (inactive)
GI50 (OVCAR-3): 2.4 µM (inactive)
GI50 (OVCAR-4): 3.44 µM (inactive)
GI50 (OVCAR-5): 5.87 µM (inactive)
GI50 (OVCAR-8): 3.39 µM (inactive)
GI50 (PC-3): 1.04 µM (active)
GI50 (RPMI-8226): 2.59 µM (inactive)
GI50 (RXF 393): 3.78 µM (inactive)
GI50 (SF-268): 5.43 µM (inactive)
GI50 (SF-295): 5.25 µM (inactive)
GI50 (SF-539): 0.69 µM (active)
GI50 (SK-MEL-28): 7.89 µM (inactive)
GI50 (SK-MEL-2): 3.4 µM (inactive)
GI50 (SK-MEL-5): 1.08 µM (active)
GI50 (SK-OV-3): 6.04 µM (inactive)
GI50 (SN12C): 6.34 µM (inactive)
GI50 (SNB-19): 5.51 µM (inactive)
GI50 (SNB-75): 2.7 µM (inactive)
GI50 (SR): 1.43 µM (inactive)
GI50 (SW-620): 2.33 µM (inactive)
GI50 (T47D): 9.57 µM (inactive)
GI50 (TK-10): 5.38 µM (inactive)
GI50 (U-251): 7.19 µM (inactive)
GI50 (UACC-257): 4.72 µM (inactive)
GI50 (UACC-62): 3.91 µM (inactive)
GI50 (UO-31): 3.08 µM (inactive)

NC(N)=NCCC[C@H](N)C(=O)NCC(=O)N[C@@H](CC(=O)O)c1ncc(NC(=O)C(F)(F)F)o1
GI50 (786-0): > 25 µM (inactive)
GI50 (A498): > 25 µM (inactive)
GI50 (A549): > 25 µM (inactive)
GI50 (ACHN): > 25 µM (inactive)
GI50 (BT-549): > 25 µM (inactive)
GI50 (CCRF-CEM): > 25 µM (inactive)
GI50 (COLO 205): > 25 µM (inactive)
GI50 (DU-145): > 25 µM (inactive)
GI50 (EKVX): > 25 µM (inactive)
GI50 (HCC 2998): 17.8 µM (inactive)
GI50 (HCT-116): > 25 µM (inactive)
GI50 (HCT-15): > 25 µM
GI50 (HL-60): > 25 µM (inactive)
GI50 (HOP-62): > 25 µM (inactive)
GI50 (HT-29): > 25 µM (inactive)
GI50 (Hs-578T): > 25 µM (inactive)
GI50 (IGROV-1): > 25 µM (inactive)
GI50 (K562): > 25 µM (inactive)
GI50 (KM12): > 25 µM (inactive)
GI50 (LOX IMVI): > 25 µM (inactive)
GI50 (M14): > 25 µM (inactive)
GI50 (MCF7): > 25 µM (inactive)
GI50 (MDA-MB-435): > 25 µM (inactive)
GI50 (MOLT-4): > 25 µM (inactive)
GI50 (Malme-3M): > 25 µM (inactive)
GI50 (NCI-H226): > 25 µM (inactive)
GI50 (NCI-H23): > 25 µM (inactive)
GI50 (NCI-H460): > 25 µM (inactive)
GI50 (NCI-H522): > 25 µM (inactive)
GI50 (NCI/ADR-RES): > 25 µM (inactive)
GI50 (OVCAR-3): > 25 µM (inactive)
GI50 (OVCAR-4): > 25 µM (inactive)
GI50 (OVCAR-5): > 25 µM (inactive)
GI50 (OVCAR-8): > 25 µM (inactive)
GI50 (PC-3): > 25 µM (inactive)
GI50 (RXF 393): > 25 µM (inactive)
GI50 (SF-268): > 25 µM (inactive)
GI50 (SF-295): > 25 µM (inactive)
GI50 (SF-539): > 25 µM (inactive)
GI50 (SK-MEL-28): > 25 µM (inactive)
GI50 (SK-MEL-2): > 25 µM (inactive)
GI50 (SK-MEL-5): > 25 µM (inactive)
GI50 (SK-OV-3): > 25 µM (inactive)
GI50 (SNB-75): > 25 µM (inactive)
GI50 (SW-620): > 25 µM (inactive)
GI50 (T47D): > 25 µM (inactive)
GI50 (TK-10): > 25 µM (inactive)
GI50 (U-251): > 25 µM (inactive)
GI50 (UACC-257): > 25 µM (inactive)
GI50 (UACC-62): > 25 µM (inactive)
GI50 (UO-31): > 25 µM (inactive)

COc1cc(-c2c3c(cc4c2OCO4)[C@@H](Nc2ccc(-c4ccc(-c5ccc(N[C@@H]6c7cc8c(cc7C(c7cc(OC)c(O)c(OC)c7)[C@H]7C(=O)OC[C@H]67)OCO8)cc5)cc4)cc2)[C@H]2COC(=O)[C@@H]2C3)cc(OC)c1O (stereo not given in full)
GI50 (786-0): 1.76 µM (inactive)
GI50 (A498): 4.62 µM (inactive)
GI50 (A549): 3.22 µM (inactive)
GI50 (ACHN): 2.24 µM (inactive)
GI50 (BT-549): 2.84 µM (inactive)
GI50 (CAKI-1): 2.65 µM (inactive)
GI50 (CCRF-CEM): 3.13 µM (inactive)
GI50 (COLO 205): 1.7 µM (inactive)
GI50 (DU-145): 1.93 µM (inactive)
GI50 (EKVX): 4.51 µM (inactive)
GI50 (HCT-116): 1.73 µM (inactive)
GI50 (HCT-15): 1.73 µM
GI50 (HL-60): 2.4 µM (inactive)
GI50 (HOP-62): 2.58 µM (inactive)
GI50 (HOP-92): 4.55 µM (inactive)
GI50 (HT-29): 2.31 µM (inactive)
GI50 (Hs-578T): 2.6 µM (inactive)
GI50 (IGROV-1): 1.1 µM (active)
GI50 (KM12): 1.85 µM (inactive)
GI50 (LOX IMVI): 4.13 µM (inactive)
GI50 (M14): 1.95 µM (inactive)
GI50 (MCF7): 2.82 µM (inactive)
GI50 (MDA-MB-231): 2.19 µM (inactive)
GI50 (MDA-MB-435): 1.69 µM (inactive)
GI50 (MOLT-4): 3.1 µM (inactive)
GI50 (Malme-3M): 1.87 µM (inactive)
GI50 (NCI-H226): 2.09 µM (inactive)
GI50 (NCI-H23): 5.13 µM (inactive)
GI50 (NCI-H460): 3.05 µM (inactive)
GI50 (NCI/ADR-RES): 1.85 µM (inactive)
GI50 (OVCAR-3): 2.36 µM (inactive)
GI50 (OVCAR-5): 4.39 µM (inactive)
GI50 (OVCAR-8): 1.61 µM (inactive)
GI50 (PC-3): 2.04 µM (inactive)
GI50 (RPMI-8226): 2.52 µM (inactive)
GI50 (SF-268): 2.33 µM (inactive)
GI50 (SF-295): 1.77 µM (inactive)
GI50 (SF-539): < 0.01 µM (active)
GI50 (SK-MEL-28): 1.85 µM (inactive)
GI50 (SK-MEL-5): 2.28 µM (inactive)
GI50 (SK-OV-3): 2.65 µM (inactive)
GI50 (SN12C): 5.21 µM (inactive)
GI50 (SNB-19): 2.96 µM (inactive)
GI50 (SNB-75): < 0.01 µM (active)
GI50 (SR): 2.2 µM (inactive)
GI50 (SW-620): 2.7 µM (inactive)
GI50 (T47D): 4.93 µM (inactive)
GI50 (TK-10): 2.38 µM (inactive)
GI50 (U-251): 3.09 µM (inactive)
GI50 (UACC-257): 10.6 µM (inactive)
GI50 (UO-31): 3.13 µM (inactive)
